Experimental data as given in patent publication US7960556B2, “Thiadiazole derivatives for the treatment of neuro-degenerative diseases” (NV reMYND, priority 2006, dated 2011).

Test system: α-synuclein cytotoxicity in M17-SYNwt cells
Test: α-synuclein cytotoxicity assay: LDH leakage from paraquat-treated M17-SYNwt neuroblastoma cells;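 further: paraquat at 32 mM co-added with compound, 40 h exposure, LDH activity released into the culture medium measured, references are DMSO-only cells and paraquat plus DMSO cells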
Details: Homo sapiens, Neuroblastoma cell; for Emax: read-out: % Inhib.

Compound: COc1cccc(Cc2nsc(N3CCN(C(=O)c4ccc(F)cc4)C(C)C3)n2)c1 (stereo not shown) [compound 123, 1-(4-fluorobenzoyl)-4-[3-(3-methoxybenzyl)-1,2,4-thiadiazol-5-yl]-2-methylpiperazine]
- EC50: 140 nM
- Emax: 95%

Compound: COc1ccc(S(=O)(=O)NCCNc2nc(Cc3cccc(OC)c3)ns2)cc1 [compound 209, 1-N-[4-methoxyphenylsulfonyl]-N′-[3-(3-methoxybenzyl)-1,2,4-thiadiazol-5-yl]-ethane-1,2-diamine]
- EC50: 317 nM
- Emax: 100%

Compound: CC1CN(c2nc(Cc3ccc(F)cc3)ns2)CCN1C(=O)Nc1ccc(F)cc1F (stereo not shown) [compound 23, N-(2,4-difluorophenyl)-4-[3-(4-fluorobenzyl)-1,2,4-thiadiazol-5-yl]-2-methylpiperazine-1-carboxamide]
- EC50: 940 nM
- Emax: 66%

Compound: CCCCS(=O)(=O)N1CCN(c2nc(Cc3ccc(Cl)cc3)ns2)CC1 [compound 81, 1-(butylsulfonyl)-4-[3-(4-chlorobenzyl)-1,2,4-thiadiazol-5-yl]piperazine]
- EC50: 350 nM
- Emax: 80%

Compound: CCCCCCc1ccc(C(=O)NCCN2CCN(c3nc(Cc4ccc(F)cc4)ns3)CC2)cc1 [compound 96, 4-hexyl-N-{2-[4-[3-(4-fluorobenzyl)-1,2,4-thiadiazol-5-yl]piperazin-1-yl]ethyl}benzamide]
- EC50: 800 nM
- Emax: 72%

Compound: Cc1ccc(Cc2nsc(N3CCN(S(=O)(=O)c4ccc(C(C)(C)C)cc4)CC3)n2)cc1 [compound 67, 1-[4-tert-butylphenylsulfonyl]-4-[3-(4-methylbenzyl)-1,2,4-thiadiazol-5-yl]piperazine]
- Emax: 41%

Compound: CCS(=O)(=O)N1CCN(c2nc(Cc3ccc(Cl)cc3)ns2)CC1 [compound 84, 1-(ethylsulfonyl)-4-[3-(4-chlorobenzyl)-1,2,4-thiadiazol-5-yl]piperazine]
- EC50: 3480 nM
- Emax: 53%

Compound: CC1CN(c2nc(Cc3ccc(F)cc3)ns2)CCN1C(=O)c1ccc(Br)cc1 (stereo not shown) [compound 135, 1-(4-bromobenzoyl)-4-[3-(4-fluorobenzyl)-1,2,4-thiadiazol-5-yl]-2-methylpiperazine]
- EC50: 310 nM
- Emax: 73%

Compound: O=S(=O)(c1ccc(O)cc1)N1CCN(c2nc(Cc3ccc(F)cc3)ns2)CC1 [compound 217, 1-(4-hydroxybenzenesulfonyl)-4-[3-(4-fluoro-benzyl)-1,2,4-thiadiazol-5-yl]piperazine]
- EC50: 77 nM
- Emax: 77%

Compound: Cc1ccc(Cc2nsc(N3CCN(S(=O)(=O)c4cccc5ccccc45)CC3)n2)cc1 [compound 35, 1-[1-naphtylsulfonyl]-4-[3-(4-methylbenzyl)-1,2,4-thiadiazol-5-yl]piperazine]
- EC50: 47.2 nM
- Emax: 47%

Compound: O=C(c1cc(Cl)cc(Cl)c1)N1CCN(c2nc(Cc3ccc(F)cc3)ns2)CC1 [compound 137, 1-(3,5-dichlorobenzoyl)-4-[3-(4-fluorobenzyl)-1,2,4-thiadiazol-5-yl]piperazine]
- EC50: 350 nM
- Emax: 68%

Compound: Cc1ccc(C(=O)N2CCN(c3nc(Cc4ccc(F)cc4)ns3)CC2C)cc1[N+](=O)[O-] (stereo not shown) [compound 172, 1-(3-nitro-4-methylbenzoyl)-4-[3-(4-fluorobenzyl)-1,2,4-thiadiazol-5-yl]-2-methylpiperazine]
- Emax: 86%

Compound: CC1CN(c2nc(Cc3ccc(F)cc3)ns2)CCN1C(=O)c1ccc([N+](=O)[O-])cc1Cl (stereo not shown) [compound 177, 1-(2-chloro-4-nitrobenzoyl)-4-[3-(4-fluorobenzyl)-1,2,4-thiadiazol-5-yl]-2-methylpiperazine]
- Emax: 77%

Compound: CCOc1ccccc1N1CCN(c2nc(Cc3ccc(F)cc3)ns2)CC1 [compound 186, 1-(2-ethoxyphenyl)-4-[3-(4-fluorobenzyl)-1,2,4-thiadiazol-5-yl]piperazine]
- EC50: 2050 nM
- Emax: 94%

Compound: O=C(c1ccc2c(c1)OCO2)N1CCCN(c2nc(Cc3ccc(F)cc3)ns2)CC1 [compound 191, 1-(1,3-benzodioxol-5-ylcarbonyl)-4-[3-(4-fluorobenzyl)-1,2,4-thiadiazol-5-yl]-1,4-diazepane]
- Emax: 63%

Compound: Cc1ccc(Cc2nsc(N3CCN(C(=O)c4ccc(F)cc4)CC3)n2)cc1 [compound 160, 1-(4-fluorobenzoyl)-4-[3-(4-methylbenzyl)-1,2,4-thiadiazol-5-yl]piperazine]
- EC50: 2870 nM
- Emax: 88%

Compound: Cc1ccc(Cc2nsc(N3CCN(C(=O)c4ccccc4F)CC3)n2)cc1 [compound 175, 1-(2-fluorobenzoyl)-4-[3-(4-methylbenzyl)-1,2,4-thiadiazol-5-yl]piperazine]
- Emax: 78%

Compound: O=C(Nc1ccccc1F)N1CCN(c2nc(Cc3ccc(F)cc3)ns2)CC1 [compound 16, N-(2-fluorophenyl)-4-[3-(4-fluorobenzyl)-1,2,4-thiadiazol-5-yl]piperazine-1-carboxamide]
- EC50: 5680 nM
- Emax: 72%

Compound: CCCCCCc1ccc(C(=O)N2CCN(c3nc(Cc4ccc(F)cc4)ns3)CC2)cc1 [compound 121, 1-(4-hexylbenzoyl)-4-[3-(4-fluorobenzyl)-1,2,4-thiadiazol-5-yl]piperazine]
- EC50: 120 nM
- Emax: 64%

Compound: COc1ccc(S(=O)(=O)N2CCN(c3nc(Cc4cccc(F)c4)ns3)CC2)cc1 [compound 193, 1-[4-methoxyphenylsulfonyl]-4-[3-(3-fluoro-benzyl)-1,2,4-thiadiazol-5-yl]piperazine]
- EC50: 10.7 nM
- Emax: 68%

Compound: Cc1ccc(Cc2nsc(N3CCN(S(=O)(=O)c4ccc(Br)cc4)CC3)n2)cc1 [compound 64, 1-[4-bromophenylsulfonyl]-4-[3-(4-methylbenzyl)-1,2,4-thiadiazol-5-yl]piperazine]
- Emax: 58%

Compound: CCCCCc1ccc(C(=O)NCCN2CCN(c3nc(Cc4ccc(F)cc4)ns3)CC2)cc1 [compound 94, 4-pentyl-N-{2-[4-[3-(4-fluorobenzyl)-1,2,4-thiadiazol-5-yl]piperazin-1-yl]ethyl}benzamide]
- EC50: 350 nM
- Emax: 90%

Compound: Cc1ccc(Cc2nsc(N3CCN(S(=O)(=O)c4c(C)cc(C)cc4C)CC3)n2)cc1 [compound 37, 1-[2,4,6-trimethylphenylsulfonyl]-4-[3-(4-methylbenzyl)-1,2,4-thiadiazol-5-yl]piperazine]
- EC50: 73.1 nM
- Emax: 48%

Compound: O=C(Cc1ccc(F)cc1)N1CCN(c2nc(Cc3ccc(F)cc3)ns2)CC1 [compound 2, 4-(4-fluorophenylacetyl),-1-[3-(4-fluorobenzyl)-1,2,4-thiadiazol-5-yl]piperazine]
- EC50: 250 nM
- Emax: 54%

Compound: COc1ccc(S(=O)(=O)N2CCN(c3nc(Cc4ccccc4)ns3)CC2)cc1 [compound 199, 1-[4-methoxyphenylsulfonyl]-4-[3-benzyl-1,2,4-thiadiazol-5-yl]piperazine]
- EC50: 3.8 nM
- Emax: 38%

Compound: O=C(NCCN1CCN(c2nc(Cc3ccc(F)cc3)ns2)CC1)NCc1ccccc1 [compound 110, N-benzyl-N′-{2-[4-[3-(4-fluorobenzyl)-1,2,4-thiadiazol-5-yl]piperazin-1-yl]ethyl}urea]
- Emax: 77%

Compound: CC1CN(c2nc(Cc3ccc(F)cc3)ns2)CCN1S(=O)(=O)c1ccc([N+](=O)[O-])cc1 (stereo not shown) [compound 73, 1-[4-nitrophenylsulfonyl]-4-[3-(4-fluorobenzyl)-1,2,4-thiadiazol-5-yl]-2-methylpiperazine]
- Emax: 33%
